Results on 33 compounds are retold here after patent US20240109912A1, “TRICYCLIC PYRIMIDINES AS CYCLIN-DEPENDENT KINASE 7 (CDK7) INHIBITORS” (JANSSEN PHARMACEUTICA NV, priority 2020, published 2024).

By kinact is commonly meant the rate constant of inactivation at saturating inhibitor.

The structures appear in SMILES notation. “And” between values parts separate entries of the source, which are not always exact repeats. Identical values can stand only once. Like-named read-outs stand apart in the source and are kept apart here. Some results are limits rather than exact numbers.

Experiment [1] has as its system RNA polymerase II Serine 5 phosphorylation in A549 cells overexpressing CDK7 mutant (C312S). In words: Imaging-based cellular RNA PolII Ser5 phosphorylation assay in A549 cells overexpressing CDK7-mutant (C312S). The settings on record: for IC50: Homo sapiens, A549, A549 cells overexpressing CDK7 mutant (C312S), read-out: CDK7_ A549 mutant hCDK7(pIC50) (converted); for CDK7_ A549 mutant hCDK7(pIC50): A549 cells overexpressing CDK7 mutant (C312S). The experiment is classed as cell-based, human. On the procedure: Data were calculated and analyzed in Phaedra.
From this an IC50 value can be obtained.
In parallel this assay was performed in A549 cells overexpressing CDK7-mutant (C312S) to evaluate the effect of the covalent bond on potency and to screen for potential off-target effects. Mutation of Cysteine to Serine (C312S), a less nucleophilic amino acid, prevents CDK7 inhibitors from covalently binding to CDK7 and from inhibiting CDK7 activity in an irreversible manner. A stably transduced A549 cell pool was generated that overexpresses CDK7 mutant (C312S), but also expresses endogenous CDK7-WT. Covalent binders targeting the cysteine at position 312 will show a shift in potency in A549 cells overexpressing mutant C312S CDK7.

For experiment [2], the system named is RNA polymerase II Serine 5 phosphorylation (CDK7) in A549 cells.
Description: To evaluate inhibition of CDK7 kinase activity, a 384-well automated imaging assay was used. This assay detects Serine 5 phosphorylation on a unique heptapeptide sequence in the C-terminal domain of Rpb1 subunit of RNA polymerase II, the downstream substrate of CDK7. This heptapeptide sequence is repeated up to 52 times in the CTD of Rpb1.
RNA Polymerase II Serine 5 phosphorylation was detected using a specific rabbit Phospho-Rpb1 CTD (Ser5) antibody. A549 adenocarcinoma human alveolar basal epithelial cells were seeded in 20 μl medium (DMEM supplemented with 1% Fetal Bovine Serum (heat inactivated 30′ 56° C.), 2 mM L-glutamine, 50 U/ml penicillin 50 μg/ml streptomycin, 1 mM sodium pyruvate and 50 mM hepes) at 1000 cells/well and cultured in poly-D-lysine coated μclear 384 black plates for 20 hours at 37° C. and 5% CO2.
After incubation cells were challenged with compound for 3 hours at 37° C. and 5% CO2. DMSO was used as high control and as low control 10 μM of the following reference compound was used:
40 nl of test compounds and controls were spotted in cell plates using Echo Liquid Handler (Echo 550, Labcyte). Incubation was followed by 20 minutes fixation with 20 μl 10% formaldehyde at room temperature. Medium/formaldehyde solution was removed, plates were washed 3 times with 30 μl D-PBS (w/o Ca^2+ and Ma^2+) and permeabilization was done by adding 20 μl ice cold methanol for 20 minutes. Cells were washed again 3 times with 30 μl D-PBS and 20 μl blocking buffer (25 ml fetal bovine serum in 500 ml D-PBS) was added for 1 hour.
After removing blocking buffer 20 μl 1/1000 primary antibody rabbit Phospho-Rpb1 CTD (Ser5) antibody was added which binds to the phosphorylated Serine5 of the heptapeptide sequences in the CTD of Rpb1. […] Last, plates were washed 2 times with 30 μl D-PBS and wells were filled with 40 μL D-PBS, plates were sealed (Thermowell sealing tape) and stored at 4° C. until reading. Plates were read with Opera Phenix (Perkin Elmer) with 10× air objective. Data were calculated and analyzed in Phaedra.
IC50 values were calculated using the following formula
Average value of all HC's and all LC's are used for normalizations.
% Effect=100−(sample-LC)/(HC-LC)×100
% Control=(sample/HC)×100
From this an IC50 value can be obtained. An estimate of the slope of the plot in terms of the Hill coefficient is also obtained.
The target in experiment [3] is CDK7/cyclinH/MAT1 trimeric complex (Homo sapiens (Human), UniProt P50613). The experiment in a line: In vitro CDK7 assay, potency of irreversible covalent inhibitors (kinact/KI). The note with it: for Ki: CDK7 (20 nM enz.) (KI, μM); for CDK7 (20 nM enz.) (kinact, s^−1) / CDK7 (20 nM enz.) (kinact/ KI, M^−1*s^−1) / Ki: 20 nM enz.; for kinact: read-out: CDK7 (20 nM enz.) (kinact, s^−1), 20 nM enz.
Chain of CDK7/cyclinH/MAT1 trimeric complex (P50613 whole entry): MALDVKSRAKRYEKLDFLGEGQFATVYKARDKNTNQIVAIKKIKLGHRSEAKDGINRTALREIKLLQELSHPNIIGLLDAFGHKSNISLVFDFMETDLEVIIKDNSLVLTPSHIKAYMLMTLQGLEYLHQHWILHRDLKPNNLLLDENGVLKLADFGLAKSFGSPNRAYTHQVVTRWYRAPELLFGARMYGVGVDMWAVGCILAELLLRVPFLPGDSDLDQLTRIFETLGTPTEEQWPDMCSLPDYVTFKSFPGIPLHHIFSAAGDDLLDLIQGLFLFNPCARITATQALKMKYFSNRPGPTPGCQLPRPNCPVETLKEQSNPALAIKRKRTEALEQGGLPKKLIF
Chain of CDK7/cyclinH/MAT1 trimeric complex (P51946 whole entry partner): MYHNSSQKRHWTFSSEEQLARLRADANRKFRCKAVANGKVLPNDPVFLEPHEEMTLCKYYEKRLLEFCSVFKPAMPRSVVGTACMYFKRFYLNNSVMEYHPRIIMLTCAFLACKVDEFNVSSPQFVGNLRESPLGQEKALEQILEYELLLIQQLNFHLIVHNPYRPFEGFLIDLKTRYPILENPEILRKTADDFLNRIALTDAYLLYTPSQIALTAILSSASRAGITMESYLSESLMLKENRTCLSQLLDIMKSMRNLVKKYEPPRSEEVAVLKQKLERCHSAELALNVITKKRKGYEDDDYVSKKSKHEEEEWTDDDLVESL
Chain of CDK7/cyclinH/MAT1 trimeric complex (P51948 whole entry partner): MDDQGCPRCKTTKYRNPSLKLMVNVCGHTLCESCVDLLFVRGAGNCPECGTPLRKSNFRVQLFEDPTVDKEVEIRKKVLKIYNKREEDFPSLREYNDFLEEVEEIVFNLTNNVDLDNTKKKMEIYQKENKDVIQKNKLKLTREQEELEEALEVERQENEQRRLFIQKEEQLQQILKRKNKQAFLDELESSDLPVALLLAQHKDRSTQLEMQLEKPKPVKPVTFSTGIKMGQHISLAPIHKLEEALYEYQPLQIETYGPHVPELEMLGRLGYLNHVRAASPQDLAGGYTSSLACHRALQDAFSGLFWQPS

`[2H]C([2H])([2H])C#CC(=O)N1CC[C@H](N2CC(c3cc(C)c4c(c3)Nc3ncnc(N5CCS(=O)(=O)CC5)c3[C@@H](C)O4)C2)C1` (single isomer, unassigned) [compound 166]: the IC50 was above 10000 nM in experiment [1] and 141 nM in experiment [2].

Turning to `CC#CC(=O)N1CC(N2CC(c3cc(C)c4c(c3)Nc3ncnc(N5CCS(=O)(=O)CC5)c3[C@@H](C)O4)C2)C(C)(C)C1` (mixture of isomers) [compound 184], the IC50 in experiment [1] is above 10000 nM; in experiment [2], 186 nM.

Consider `CC#CC(=O)N1CC(N2C3CCC2CC(c2cc(C)c4c(c2)Nc2ncnc(N5CCS(=O)(=O)CC5)c2[C@@H](C)O4)C3)C1` (mixture of isomers) [compound 183], for which the “CDK7_ A549 mutant hCDK7(pIC50)” value in experiment [1] is below 5. Besides, in experiment [2], the IC50 was 347 nM.

`CCC#CC(=O)N1CC[C@@H](N2CC(c3cc(C)c4c(c3)Nc3ncnc(N5CCS(=O)(=O)CC5)c3[C@@H](C)O4)C2)C1` (single isomer, unassigned) [compound 167]: the IC50 was above 10000 nM in experiment [1] and 55 nM in experiment [2].

For the compound `[2H][C@]1(N2CC(c3cc(C)c4c(c3)Nc3ncnc(N5CCS(=O)(=O)CC5)c3[C@@H](C)O4)C2)CCN(C(=O)C#CC)C1` (single isomer, unassigned) [compound 159], the IC50 is above 10000 nM in experiment [1] and 178 nM in experiment [2].

In the case of `C=CC(=O)N1CC(N2CCC(c3cc(C)c4c(c3)Nc3ncnc(N5CCC(S(C)(=O)=O)CC5)c3CO4)CC2)C1` [compound 70], the IC50 in experiment [1] and in experiment [2] was above 10000 nM throughout.

Take `Cc1cc(C2CCN(C3CN(C(=O)C#CC(C)C)C3)CC2)cc2c1O[C@H](C)c1c(ncnc1N1CCS(=O)(=O)CC1)N2` [compound 174]: the IC50 in experiment [1] is 7760 nM; in experiment [2], 58.9 nM.

For `[2H]C([2H])([2H])C#CC(=O)N1CC(N2CCC(c3cc(C)c4c(c3)Nc3ncnc(N5CCS(=O)(=O)CC5)c3[C@@H](C)O4)CC2)C1` [compound 164], the IC50 in experiment [1] was above 10000 nM; in experiment [2] it was 53.7 nM.

`CC#CC(=O)N1CCC(N2CCC(c3cc(C)c4c(c3)Nc3ncnc(N5CCS(=O)(=O)CC5)c3[C@@H](C)O4)CC2)CC1` [compound 156]: the values for the IC50 in experiment [1] and in experiment [2] were 1950 nM and below 2.45 nM, respectively.

Regarding `CC#CC(=O)N1CC[C@@H](N2CC(c3cc(C)c4c(c3)Nc3ncnc(N5CCS(=O)(=O)CC5)c3[C@@H](C)O4)C2)C1` [compound 130], the IC50 in experiment [1] was above 10000 nM.

As to `C=CC(=O)N1CC(N2CC(c3cc(C)c4c(c3)Nc3ncnc(-c5cnn(C)c5)c3[C@H](C)O4)C2)C1` (single isomer, unassigned) [compound 108], the IC50 in experiment [1] and in experiment [2] was above 10000 nM in each case.

In the case of `CC#CC(=O)N1CC(N2CC(c3cc(C)c4c(c3)Nc3ncnc(N5CCS(=O)(=O)CC5)c3CO4)C2)C1` [compound 132], the IC50 in experiment [1] is above 10000 nM; in experiment [2], 813 nM.

Turning to `C=CC(=O)N1CC(N2CCC(c3cc(C)c4c(c3)Nc3ncnc(N5CCOC6(COC6)C5)c3CO4)CC2)C1` [compound 68], the IC50 is above 10000 nM in experiment [1] and 87.1 nM in experiment [2].

As for `CC#CC(=O)N1CC[C@H](N2CCC(c3cc(C)c4c(c3)Nc3ncnc(N5CCS(=O)(=O)CC5)c3CO4)CC2)C1` (single isomer, unassigned) [compound 134], the IC50 in experiment [1] is above 10000 nM; in experiment [2], 83.2 nM.

For `CC#CC(=O)N1CC[C@H](N2CC(c3cc(C)c4c(c3)Nc3ncnc(N5CCS(=O)(=O)CC5)c3[C@H](C)O4)C2)C1` (single isomer, unassigned) [compound 129], in experiment [1], the “CDK7_ A549 mutant hCDK7(pIC50)” value is given as below 5 and the IC50 was above 10000 nM.

With `C=CC(=O)N1CC[C@@H](N2CC(c3cc4c(c(C5CC5)c3)O[C@@H](C)c3c(ncnc3N3CCS(=O)(=O)CC3)N4)C2)C1` (single isomer, unassigned) [compound 98], the IC50 in experiment [1] is above 10000 nM; in experiment [2], 347 nM.

Turning to `C=CC(=O)N1CC[C@H](N2CC(c3cc4c(c(C5CC5)c3)O[C@@H](C)c3c(ncnc3N3CCS(=O)(=O)CC3)N4)C2)C1` (single isomer, unassigned) [compound 99], the values for the IC50 in experiment [1] and in experiment [2] were above 10000 nM and around 794 nM, respectively.

As for `CC#CC(=O)N1CC(N2CCC(c3cc(C)c4c(c3)Nc3ncnc(N5CCS(=O)(=O)CC5)c3[C@@H](C)O4)CC2)C1` [compound 157], the “CDK7_ A549 mutant hCDK7(pIC50)” value in experiment [1] is given as 5.12. In experiment [2], this compound gave an IC50 of 75.9 nM.

With `[2H]C([2H])([2H])C#CC(=O)N1CC[C@@H](N2CC(c3cc(C)c4c(c3)Nc3ncnc(N5CCS(=O)(=O)CC5)c3[C@@H](C)O4)C2)C1` (single isomer, unassigned) [compound 165], the figures for the IC50 in experiment [1] and in experiment [2] were above 10000 nM and 105 nM, respectively.

As to `Cc1cc(C2CN([C@@H]3CCN(C(=O)C#CCCN(C)C)C3)C2)cc2c1O[C@H](C)c1c(ncnc1N1CCS(=O)(=O)CC1)N2` (single isomer, unassigned) [compound 177], the figures for the IC50 in experiment [1] and in experiment [2] were 7240 nM and around 12.9 nM, respectively.

In the case of `CC#CC(=O)N1CCN([C@H]2CC[C@H](c3cc(C)c4c(c3)Nc3ncnc(N5CCS(=O)(=O)CC5)c3[C@@H](C)O4)CC2)CC1` [compound 161], the IC50 in experiment [1] is above 10000 nM; in experiment [2] it was below 9.77 nM.

Take `CC#CC(=O)N1CC(N2CCC(c3cc(C)c4c(c3)Nc3ncnc(N5CCS(=O)(=O)CC5)c3[C@@H](C)O4)CC2)C1` [compound 158]: the “CDK7_ A549 mutant hCDK7(pIC50)” value in experiment [1] is listed as around 5.22. In experiment [2], this compound gave an IC50 of 74.1 nM.

For `CC#CC(=O)N1CCOC([C@H]2C[C@H](c3cc(C)c4c(c3)Nc3ncnc(N5CCS(=O)(=O)CC5)c3[C@@H](C)O4)C2)C1` (single isomer, unassigned) [compound 186], in experiment [1], the “CDK7_ A549 mutant hCDK7(pIC50)” value is recorded as below 5. The IC50 in experiment [2] is 269 nM.

Take `CC#CC(=O)N1CCN([C@H]2CC[C@@H](c3cc(C)c4c(c3)Nc3ncnc(N5CCS(=O)(=O)CC5)c3[C@@H](C)O4)CC2)CC1` [compound 162]: the results for the IC50 in experiment [1] and in experiment [2] were above 10000 nM and 209 nM, respectively.

In the case of `CC#CC(=O)N1CC[C@](C)(N2CCC(c3cc(C)c4c(c3)Nc3ncnc(N5CCS(=O)(=O)CC5)c3[C@@H](C)O4)CC2)C1` (single isomer, unassigned) [compound 146], the IC50 in experiment [1] was 4370 nM; in experiment [2], below 2.45 nM.

As to `CC#CC(=O)N1CC[C@@H](N2CC(c3cc(C)c4c(c3)Nc3ncnc(N5CCS(=O)(=O)CC5)c3[C@H](C)O4)C2)C1` (single isomer, unassigned) [compound 131], in experiment [1], the “CDK7_ A549 mutant hCDK7(pIC50)” value is recorded as below 5 and the IC50 is above 10000 nM.

`C=CC(=O)N1CC[C@H](N2CCC(c3cc(C)c4c(c3)Nc3ncnc(N5CCS(=O)(=O)CC5)c3CO4)CC2)C1` (single isomer, unassigned) [compound 115]: in experiment [1], the “CDK7_ A549 mutant hCDK7(pIC50)” value is on record as below 5 and the IC50 was above 10000 nM. Further, in experiment [3], the “CDK7 (20 nM enz.) (kinact, s^−1)” value was 5.98e-05 s⁻¹; the “CDK7 (20 nM enz.) (kinact/ KI, M^−1*s^−1)” value amounted to 1377.97 M⁻¹ s⁻¹; the Ki was 0.0595 µM and 0.0434 µM; the kinact is 7.64e-05 s⁻¹. The kinact/KI in experiment [3] (read-out: CDK7 (20 nM enz.) (kinact/ KI, M^−1*s^−1), 20 nM enz.) was 1280 M⁻¹ s⁻¹.

As to `C=CC(=O)N1CC[C@H](N2CC(c3cc(C)c4c(c3)Nc3ncnc(N5CCS(=O)(=O)CC5)c3[C@@H](C)O4)C2)C1` (single isomer, unassigned) [compound 117], in experiment [1], the “CDK7_ A549 mutant hCDK7(pIC50)” value was below 5 and the IC50 is above 10000 nM. Further, in experiment [3], the “CDK7 (20 nM enz.) (kinact, s^−1)” value is 8.4e-05 s⁻¹ and 4.63e-05 s⁻¹; the “CDK7 (20 nM enz.) (kinact/ KI, M^−1*s^−1)” value is 1546.72 M⁻¹ s⁻¹ and 2895.79 M⁻¹ s⁻¹ and 2153.89 M⁻¹ s⁻¹; the Ki is 0.034 µM and 0.029 µM and 0.0215 µM; the kinact was determined as 5.26e-05 s⁻¹. For the same compound, in experiment [3] (read-out: CDK7 (20 nM enz.) (kobs/[I], M^−1*s^−1), 20 nM enz.), the kinact/KI was 800 M⁻¹ s⁻¹.

On to `Cc1cc(C2CCN(C3CN(C(=O)C#CCN(C)C)C3)CC2)cc2c1O[C@H](C)c1c(ncnc1N1CCS(=O)(=O)CC1)N2` [compound 169], for which the IC50 in experiment [1] is 4170 nM; in experiment [2], below 2.45 nM.

Consider `CCC#CC(=O)N1CC(N2CCC(c3cc(C)c4c(c3)Nc3ncnc(N5CCS(=O)(=O)CC5)c3[C@@H](C)O4)CC2)C1` [compound 163], for which the figures for the IC50 in experiment [1] and in experiment [2] were above 10000 nM and around 31.6 nM, respectively.

Turning to `C=CC(=O)N1CC[C@@H](N2CC(c3cc(C)c4c(c3)Nc3ncnc(N5CCS(=O)(=O)CC5)c3[C@@H](C)O4)C2)C1` (single isomer, unassigned) [compound 119], in experiment [1], the “CDK7_ A549 mutant hCDK7(pIC50)” value came to 4.95 and the IC50 is above 10000 nM. In experiment [3], the “CDK7 (20 nM enz.) (kinact, s^−1)” value was 6.1e-05 s⁻¹ and 4.27e-05 s⁻¹; the “CDK7 (20 nM enz.) (kinact/ KI, M^−1*s^−1)” value was 1923.49 M⁻¹ s⁻¹ and 1433.61 M⁻¹ s⁻¹ and 1881.64 M⁻¹ s⁻¹; the Ki is 0.0249 µM and 0.0426 µM and 0.0227 µM; the inactivation rate constant (kinact) was 4.79e-05 s⁻¹.

Regarding `CC#CC(=O)N1CC(N2CCC(c3cc4c(c(C)n3)O[C@H](C)c3c(ncnc3N3CCS(=O)(=O)CC3)N4)CC2)C1` (single isomer, unassigned) [compound 139], the IC50 in experiment [1] is above 10000 nM. Moreover, in experiment [3], the “CDK7 (20 nM enz.) (kinact, s^−1)” value was found to be 6.2e-05 s⁻¹; the Ki is 0.135 µM and 0.0466 µM; the kinact amounted to 5.63e-05 s⁻¹.

With `CC#CC(=O)N1CC[C@H](N2CC(c3cc(C)c4c(c3)Nc3ncnc(N5CCS(=O)(=O)CC5)c3[C@@H](C)O4)C2)C1` [compound 128], in experiment [1], the “CDK7_ A549 mutant hCDK7(pIC50)” value is given as below 5 and the IC50 is above 10000 nM.
